Patent publication US20110230501A1, “PHARMACEUTICAL COMPOSITIONS FOR THE TREATMENT OF DIABETES MELLITUS” (IPCA Laboratories Ltd., priority 2008, published 2011)
Marks after values point to notes of the source that are not given here.

Experiments:
[1] = test system: alloxan induced diabetic rats; test: Alloxan induced diabetic rats: hydroxychloroquine with metformin; type: in vivo, Wistar rats; details: nine days, HCQ 160 or MET 500 mg/kg/day p.o.
Protocol: (§1) Thirty Wistar rats weighing 150-200 g of either sex were divided into six groups consisting of five rats each. Experimental diabetes was induced in rats by injecting alloxan monohydrate intraperitonially at a dose of 90 mg/kg body weight. Rats with blood sugar level of 250-350 mg/dl, were considered as diabetic and employed in the study. Group 1 (normal control) consisted of normal rats that neither received alloxan monohydrate nor any drug. Group 2 served as diabetic control which received vehicle orally. […] The study drugs were administered for nine days.

[2] = test system: alloxan induced diabetic rats; test: Alloxan induced diabetic rats: hydroxychloroquine with glimepiride; type: in vivo, Wistar rats; details: nine days, HCQ 160 or GLM 8 mg/kg/day p.o.
Protocol: as §1, with “Group 2′” for “Group 2”

[3] = test system: sulphonylurea-refractory patients with poorly controlled Type 2 diabetes; details: cited from earlier work
[4] = cited from earlier work
[5] = test system: alloxan induced diabetic rats; test: Alloxan induced diabetic rats: hydroxychloroquine with pioglitazone; type: in vivo, Wistar rats; details: nine days, HCQ 160 or PIO 10 mg/kg/day p.o.
Protocol: as §1

[6] = cited from earlier work; remark: listed apart in the source
[7] = test system: adults with rheumatoid arthritis; details: cited from earlier work
[8] = patients treated with hydroxychloroquine

SMILES | Blood Glucose (mg/dl) Final [1] [mg/dL] | Body Weight (g) Final [1] [g] | Alb. (Albumin) [1] | Blood Glucose (% mean change) [1] | Body Weight (% mean change) [1] | HDL (High Density Lipoprotein) [1] | Hb (Hemoglobin) [1] | TC (Total Cholesterol) [1] | TG (Triglyceride) [1] | Urea [1] | Blood Glucose (mg/dl) Final [2] [mg/dL] | Body Weight (g) Final [2] [g] | Alb. (Albumin) [2] | Blood Glucose (% mean change) [2] | Body Weight (% mean change) [2] | HDL (High Density Lipoprotein) [2] | Hb (Hemoglobin) [2] | TC (Total Cholesterol) [2] | TG (Triglyceride) [2] | Urea [2] | other results
CN(C)C(=N)N=C(N)N [MET, metformin] | 148.8 ± 17.35 | 173.8 ± 7.19 | 4.52 ± 1.12^a g/dl | (−47.58)^d % | (−10.51) c % | 34.40 ± 2.51^b mg/dl | 12.80 ± 1.25^b g/dl | 170.40 ± 5.90^b mg/dl | 111.20 ± 5.93^b mg/dl | 31.49 ± 1.81^b mg/dl | – | – | – | – | – | – | – | – | – | – | Protein (T) (Total Protein) [1]: 6.75 ± 0.80^b g/dl; Blood Glucose (% mean change) ([1]; listed as Metformin): 47.58%
CCC1=C(C)CN(C(=O)NCCc2ccc(S(=O)(=O)NC(=O)N[C@H]3CC[C@H](C)CC3)cc2)C1=O [GLM, glimepiride] | – | – | – | – | – | – | – | – | – | – | 157.2 ± 17.64 | 170 ± 11.22 | 3.99 ± 0.24^a g/dl | (−46.83)^d % | (−3.40)^c % | 33 ± 1.58^b mg/dl | 14.04 ± 1.90^b g/dl | 169.40 ± 7.05^b mg/dl | 113.40 ± 3.64^b mg/dl | 30.26 ± 0.86^b mg/dl | Protein (T) (Total Protein) [2]: 5.78 ± 1.22^b g/dl
CCN(CCO)CCCC(C)Nc1ccnc2cc(Cl)ccc12 (centres unmarked) [HCQ, hydroxychloroquine] | 263.80 ± 2.04 | 151.60 ± 13.16 | 4.03 ± 0.13^a g/dl | (−10.81)^c % | (−10.51)^b % | 35.80 ± 2.28^b mg/dl | 12.12 ± 1.27^a g/dl | 178.40 ± 2.70^c mg/dl | 117.20 ± 2.28^b mg/dl | 29.70 ± 1.37^b mg/dl | 263.80 ± 2.04 | 151.60 ± 13.16 | 4.03 ± 0.13^a g/dl | (−10.81)^c % | (−10.51)^b % | 35.80 ± 2.28^b mg/dl | 12.12 ± 1.27^a g/dl | 178.40 ± 2.70^c mg/dl | 117.20 ± 2.28^b mg/dl | 29.70 ± 1.37^b mg/dl | glycemic control [3]: improved glycemic control; Blood Glucose (% mean change) ([1]; listed as hydroxychloroquine): −10.81%; serum levels of cholesterol, triglycerides, and LDL ([4]; irrespective of concomitant steroid administration): high statistical association with low serum levels; HDL and % HDL [4, 8]: rise; decrease in serum levels of cholesterol [4, 8]: approximately 10%; Blood Glucose (mg/dl) Final [5]: 263.80 ± 2.04 mg/dL; Body Weight (g) Final [5]: 151.60 ± 13.16 g; Alb. (Albumin) [5]: 4.03 ± 0.13^a g/dl; Blood Glucose (% mean change) [5]: (−10.81)^c %; Body Weight (% mean change) [5]: (−10.51)^b %; HDL (High Density Lipoprotein) [5]: 35.80 ± 2.28^b mg/dl; Hb (Hemoglobin) [5]: 12.12 ± 1.27^a g/dl; TC (Total Cholesterol) [5]: 178.40 ± 2.70^c mg/dl; TG (Triglyceride) [5]: 117.20 ± 2.28^b mg/dl; Urea [5]: 29.70 ± 1.37^b mg/dl; Blood Glucose (% mean change) ([5]; listed as hydroxychloroquine): −10.81%; Blood Glucose (% mean change) ([2]; listed as hydroxychloroquine): −10.81%; red blood cell aggregation ([6]; humans, without prolonging the bleeding time): reduction; plasma viscosity as well as whole blood viscosity ([6]; postoperative patients): significant reduction; risk of diabetes [7]: reduced risk of diabetes
CCc1ccc(CCOc2ccc(CC3SC(=O)NC3=O)cc2)nc1 (centres unmarked) [PIO, pioglitazone] | – | – | – | – | – | – | – | – | – | – | – | – | – | – | – | – | – | – | – | – | Blood Glucose (mg/dl) Final [5]: 175.8 ± 5.48 mg/dL; Body Weight (g) Final [5]: 159.20 ± 11.21 g; Alb. (Albumin) [5]: 4.03 ± 0.14^a g/dl; Blood Glucose (% mean change) [5]: (−41.92)^a %; Body Weight (% mean change) [5]: (−6.07)^a %; HDL (High Density Lipoprotein) [5]: 35.8 ± 2.28^b mg/dl; Hb (Hemoglobin) [5]: 12.12 ± 1.27^b g/dl; Protein (T) (Total Protein) [5]: 6.06 ± 1.43^b g/dl; TC (Total Cholesterol) [5]: 178.4 ± 2.70^b mg/dl; TG (Triglyceride) [5]: 117.2 ± 2.28^b mg/dl; Urea [5]: 29.69 ± 1.37^b mg/dl
